Source: article PMC8318587, “Structure-guided microbial targeting of antistaphylococcal prodrugs” (eLife, 2021)

Columns and labels:
[1] = target: T1, SaGloB (Staphylococcus aureus, UniProt P0DY75); assay: Esterase substrate specificity, fluorogenic SAR library kinetics; format: biochemical; conditions: SaGloB; for Km: fluorogenic ester substrate; for kcat/kuncat: normalised to uncatalysed hydrolysis rate
T1 sequence (P0DY75 1-207): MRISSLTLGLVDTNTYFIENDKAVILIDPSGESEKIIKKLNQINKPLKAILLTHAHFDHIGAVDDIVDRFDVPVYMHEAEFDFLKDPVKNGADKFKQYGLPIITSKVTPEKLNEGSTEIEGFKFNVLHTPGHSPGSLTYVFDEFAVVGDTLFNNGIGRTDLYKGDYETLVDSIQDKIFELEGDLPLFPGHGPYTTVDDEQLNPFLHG
Description: (§1) Kinetic measurements were performed according to [White et al., 2018] with minor variation. Lyophilized human and mouse sera were resuspended according to manufacturer instructions in highly pure, filtered water at protein concentrations of 85 mg/mL and 70 mg/mL, respectively. One milliliter of resuspended serum was added to a 24 mL mastermix for a final concentration of 31.25 mM Tris pH 7.5, 312.5 mM NaCl, 1.25 mM MgCl2, 12.5% glycerol, and 3.4 mg/mL or 2.8 mg/mL protein for human and mouse serum, respectively. For purified proteins, 5 mL of a 75 µg/mL stock was added to yield a 20 mL mastermix containing 31.25 mM Tris pH 7.5, 312.5 mM NaCl, 1.25 mM MgCl2, 12.5% glycerol, and 18.75 µg/mL protein. Mastermix was stored on ice when not in use. Twenty microliters of mastermix was transferred to a black, 96-well half area microplate (Corning, CLS3993) and prewarmed at 37°C. Fluorogenic substrates were prepared as 10 mM stock solutions in 100% DMSO and were diluted in water to a starting concentration of 500 µM. Enzyme catalyzed substrate hydrolysis was initiated by addition of 5 µL substrate dilution in technical duplicate to the prewarmed serum or protein solution. Final assay concentrations were as follows: 25 mM Tris pH 7.5, 250 mM NaCl, 1 mM MgCl2, 10% glycerol, and protein at a concentration of 2.72 mg/mL (human serum), 2.24 mg/mL (mouse serum), or 15 µg/mL (FrmB, GloB). The resulting change in fluorescence (λex = 485 nm, λem = 520 nm) was followed for 15 min at 37°C, collecting data every 30 s on a FLUOstar Omega microplate reader (BMG Labtech). Fluorescence measurements were converted to molar concentrations using a fluorescein standard curve (2.5 nmol–0.6 pmol). The initial rates of reaction were measured three independent times with two technical replicates per measurement and fit to a line using GraphPad Prism (GraphPad Software, La Jolla, CA). Initial rates of reaction were plotted versus the concentration of substrate and fit to a standard Michaelis–Menten equation (v = Vmax[S]/(Km + [S])), yielding estimates of Vmax and Km. Values for kcat and kcat/Km were calculated based on amount of enzyme added when purified enzymes were used.

[2] = target: T2, SaFrmB (Staphylococcus aureus, UniProt A0A0H3KFB7); assay: as above; format: biochemical; conditions: for kcat/kuncat: SaFrmB; for Km: SaFrmB 15 µg/mL, pH 7.5, 37°C
T2 construct: made in house; host or cells: E. coli BL21 (DE3)
T2 sequence (A0A0H3KFB7 1-253): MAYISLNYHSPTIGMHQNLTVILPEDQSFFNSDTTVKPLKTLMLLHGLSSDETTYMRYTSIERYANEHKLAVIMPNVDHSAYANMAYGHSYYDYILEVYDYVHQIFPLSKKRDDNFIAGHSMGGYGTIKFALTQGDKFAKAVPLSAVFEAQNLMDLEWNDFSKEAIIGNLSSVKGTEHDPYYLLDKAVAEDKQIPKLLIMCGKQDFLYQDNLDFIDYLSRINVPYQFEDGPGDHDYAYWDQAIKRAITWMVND
Description: as §1

[3] = system: human sera; assay: Esterase substrate specificity, fluorogenic SAR library kinetics in serum; format: in vitro ADME
Description: as §1

[4] = system: mouse sera; assay: as above; format: in vitro ADME
Description: as §1

Row | Structure (SMILES) | Km [1] [µM] | kcat/kuncat [2] | Km [3] [µM] | Vmax [3] [pmol*min-1*mg sera-1] | Km [4] [µM] | kcat/kuncat [1] | Km [2] [µM] | Vmax [4] [pmol*min-1*mg sera-1]
1 | COC(C)(C)C(=O)OCOc1ccc2c(c1)Oc1cc(OCOC(=O)C(C)(C)OC)ccc1C21OC(=O)c2ccccc21 [10O] | > 50 | 4.97 103 | 63.3 | 1.46 | > 50 | – | – | –
2 | CCCOCC(=O)OCOc1ccc2c(c1)Oc1cc(OCOC(=O)COCCC)ccc1C21OC(=O)c2ccccc21 [3O] | – | 0.911 103 | 22.2 | 11.7 | > 50 | 4.91 103 | – | –
3 | CC(C)SCC(=O)OCOc1ccc2c(c1)Oc1cc(OCOC(=O)CSC(C)C)ccc1C21OC(=O)c2ccccc21 [6S] | – | 2.44 103 | > 50 | – | > 50 | 12.9 103 | – | –
4 | O=C(COc1ccccc1)OCOc1ccc2c(c1)Oc1cc(OCOC(=O)COc3ccccc3)ccc1C21OC(=O)c2ccccc21 [11O] | > 50 | – | > 50 | – | > 50 | – | > 50 | –
5 | C=CCOC(C)C(=O)OCOc1ccc2c(c1)Oc1cc(OCOC(=O)C(C)OCC=C)ccc1C21OC(=O)c2ccccc21 (stereo not drawn) [12O] | – | – | 42.2 | 4.00 | > 50 | 1.28 103 | > 50 | –
6 | CCCC(=O)OCOc1ccc2c(c1)Oc1cc(OCOC(=O)CCC)ccc1C21OC(=O)c2ccccc21 [1C] | – | 7.99 103 | 36.2 | 1.06 | > 50 | 21.2 103 | – | –
7 | CC(C)CCC(=O)OCOc1ccc2c(c1)Oc1cc(OCOC(=O)CCC(C)C)ccc1C21OC(=O)c2ccccc21 [6C] | – | – | > 50 | – | 53.5 | 12.7 103 | > 50 | 17.6
8 | CCSCC(=O)OCOc1ccc2c(c1)Oc1cc(OCOC(=O)CSCC)ccc1C21OC(=O)c2ccccc21 [2S] | > 50 | – | > 50 | – | > 50 | – | > 50 | –
9 | CSCCC(=O)OCOc1ccc2c(c1)Oc1cc(OCOC(=O)CCSC)ccc1C21OC(=O)c2ccccc21 [4S] | > 50 | 1.40 103 | 27.9 | 3.81 | > 50 | – | – | –
10 | CCOC(C)C(=O)OCOc1ccc2c(c1)Oc1cc(OCOC(=O)C(C)OCC)ccc1C21OC(=O)c2ccccc21 (stereo not drawn) [8O] | – | 1.38 103 | 27.7 | 3.93 | > 50 | 6.80 103 | – | –
11 | CCCC(C)C(=O)OCOc1ccc2c(c1)Oc1cc(OCOC(=O)C(C)CCC)ccc1C21OC(=O)c2ccccc21 (stereo not drawn) [8C] | – | – | > 50 | – | > 50 | 79.1 103 | > 50 | –
12 | CCC(OC)C(=O)OCOc1ccc2c(c1)Oc1cc(OCOC(=O)C(CC)OC)ccc1C21OC(=O)c2ccccc21 (stereo not drawn) [9O] | – | – | 112 | 4.35 | > 50 | 14.6 103 | > 50 | –
13 | CCCSCC(=O)OCOc1ccc2c(c1)Oc1cc(OCOC(=O)CSCCC)ccc1C21OC(=O)c2ccccc21 [3S] | > 50 | – | 74.3 | 8.80 | > 50 | – | > 50 | –
14 | CCC(C)(C)C(=O)OCOc1ccc2c(c1)Oc1cc(OCOC(=O)C(C)(C)CC)ccc1C21OC(=O)c2ccccc21 [10C] | > 50 | – | > 50 | – | > 50 | – | > 50 | –
15 | CCSC(C)C(=O)OCOc1ccc2c(c1)Oc1cc(OCOC(=O)C(C)SCC)ccc1C21OC(=O)c2ccccc21 (stereo not drawn) [8S] | – | – | > 50 | – | > 50 | 9.01 103 | > 50 | –
16 | CCOCC(=O)OCOc1ccc2c(c1)Oc1cc(OCOC(=O)COCC)ccc1C21OC(=O)c2ccccc21 [2O] | – | 1.08 103 | 40.4 | 43.8 | > 50 | 19.4 103 | – | –
17 | C=CCSC(C)C(=O)OCOc1ccc2c(c1)Oc1cc(OCOC(=O)C(C)SCC=C)ccc1C21OC(=O)c2ccccc21 (stereo not drawn) [12S] | > 50 | – | > 50 | – | > 50 | – | > 50 | –
18 | CCC(C)C(=O)OCOc1ccc2c(c1)Oc1cc(OCOC(=O)C(C)CC)ccc1C21OC(=O)c2ccccc21 (stereo not drawn) [7C] | > 50 | – | 64.2 | 0.441 | > 50 | – | > 50 | –
19 | CCC(SC)C(=O)OCOc1ccc2c(c1)Oc1cc(OCOC(=O)C(CC)SC)ccc1C21OC(=O)c2ccccc21 (stereo not drawn) [9S] | > 50 | – | > 50 | – | > 50 | – | > 50 | –
20 | CSCC(=O)OCOc1ccc2c(c1)Oc1cc(OCOC(=O)CSC)ccc1C21OC(=O)c2ccccc21 [1S] | – | – | 71.8 | 30.5 | > 50 | 11.4 103 | > 50 | –
21 | O=C(CCc1ccccc1)OCOc1ccc2c(c1)Oc1cc(OCOC(=O)CCc3ccccc3)ccc1C21OC(=O)c2ccccc21 [11C] | > 50 | – | > 50 | – | > 50 | – | > 50 | –
22 | O=C(CSc1ccccc1)OCOc1ccc2c(c1)Oc1cc(OCOC(=O)CSc3ccccc3)ccc1C21OC(=O)c2ccccc21 [11S] | > 50 | – | > 50 | – | > 50 | – | > 50 | –
23 | CSC(C)C(=O)OCOc1ccc2c(c1)Oc1cc(OCOC(=O)C(C)SC)ccc1C21OC(=O)c2ccccc21 (stereo not drawn) [7S] | – | – | 30.2 | 1.60 | > 50 | 7.86 103 | > 50 | –
24 | COC(C)C(=O)OCOc1ccc2c(c1)Oc1cc(OCOC(=O)C(C)OC)ccc1C21OC(=O)c2ccccc21 (stereo not drawn) [7O] | – | 3.31 103 | 30.3 | 5.73 | 25.9 | 23.6 103 | – | 929
25 | CC(C)OCC(=O)OCOc1ccc2c(c1)Oc1cc(OCOC(=O)COC(C)C)ccc1C21OC(=O)c2ccccc21 [6O] | – | 1.49 103 | 54.6 | 11.7 | 11.5 | 5.76 103 | – | 437
26 | CCSCCC(=O)OCOc1ccc2c(c1)Oc1cc(OCOC(=O)CCSCC)ccc1C21OC(=O)c2ccccc21 [5S] | – | 0.910 103 | 31 | 0.690 | > 50 | 4.35 103 | – | –
27 | CCCCC(=O)OCOc1ccc2c(c1)Oc1cc(OCOC(=O)CCCC)ccc1C21OC(=O)c2ccccc21 [2C] | – | 4.74 103 | 71.5 | 0.356 | > 50 | 17.2 103 | – | –
28 | COCCC(=O)OCOc1ccc2c(c1)Oc1cc(OCOC(=O)CCOC)ccc1C21OC(=O)c2ccccc21 [4O] | – | 1.40 103 | 44.5 | 5.88 | > 50 | 8.42 103 | – | –
